“And” between values parts separate entries of the source, which are not always exact repeats. Equal entries are not always repeated.

The melting point is the temperature of the solid-liquid transition.

For `O=C(O)c1cccc(-n2cc(-c3ccc(Cl)cc3)cn2)c1` [Compound 49, 3-[4-(4-Chloro-phenyl)-pyrazol-1-yl]-benzoic acid], the melting point fell in the range of 253 to 254 °C.
In turn, `COc1ccc(-c2cnn(-c3ccc(C(=O)O)cc3)c2)cc1` [Compound 50, 4-[4-(4-Methoxy-phenyl)-pyrazol-1-yl]-benzoic acid] returned a melting point of 289 to 290 °C.
Molecule `Cc1ccc(-c2cnn(-c3ccc(C(=O)O)cc3)c2)cc1` [Compound 51, 4-(4-p-Tolyl-pyrazol-1-yl)-benzoic acid] returned a melting point of 298 to 299 °C.
Regarding `O=C(O)c1ccc(-n2cc(-c3ccc(Cl)cc3)cn2)cc1` [Compound 52, 4-[4-(4-Chloro-phenyl)-pyrazol-1-yl]-benzoic acid], the melting point fell in the range of 300 to 302 °C.
Turning to `COc1ccc(-n2cc(-c3cccc(C(=O)O)n3)cn2)cc1` [Compound 53, 6-[1-(4-Methoxy-phenyl)-1H-pyrazol-4-yl]-pyridine-2-carboxylic acid], the melting point is 122 to 123 °C.
`O=C(O)c1cccc(-c2cnn(-c3ccc(Cl)cc3)c2)n1` [Compound 54, 6-[1-(4-Chloro-phenyl)-1H-pyrazol-4-yl]-pyridine-2-carboxylic acid] showed a melting point of 194 to 196 °C.
`COc1ccc(-n2cc(-c3cc(C(=O)O)ccc3[N+](=O)[O-])cn2)cc1` [Compound 55, 3-[1-(4-Methoxy-phenyl)-1H-pyrazol-4-yl]-4-nitro-benzoic acid] gave a melting point of 249 to 250 °C.
The same measure for `O=C(O)c1ccc([N+](=O)[O-])c(-c2cnn(-c3ccc(Cl)cc3)c2)c1` [Compound 56, 3-[1-(4-Chloro-phenyl)-1H-pyrazol-4-yl]-4-nitro-benzoic acid]: 270 to 271 °C; for `N#Cc1cccc(-c2ccn(-c3ccccc3)n2)c1` [Compound 57, 3-(1-Phenyl-1H-pyrazol-3-yl)-benzonitrile]: 78 to 80 °C.
In turn, `COc1ccc(-n2ccc(-c3cccc(C#N)c3)n2)cc1` [Compound 58, 3-[1-(4-Methoxy-phenyl)-1H-pyrazol-3-yl]-benzonitrile] displayed a melting point of 110 to 112 °C.
To `COc1cccc(-n2ccc(-c3cccc(C#N)c3)n2)c1` [Compound 59, 3-[1-(3-Methoxy-phenyl)-1H-pyrazol-3-yl]-benzonitrile] belongs 100 to 101 °C; to `N#Cc1cccc(-c2ccn(-c3ccc4c(c3)OCO4)n2)c1` [Compound 60, 3-(1-Benzo[1,3]dioxol-5-yl-1H-pyrazol-3-yl)-benzonitrile], 144 to 147 °C.
The same measure for `N#Cc1cccc(-c2ccn(-c3ccc(OC(F)(F)F)cc3)n2)c1` [Compound 61, 3-[1-(4-Trifluoromethoxy-phenyl)-1H-pyrazol-3-yl]-benzonitrile]: 83 to 84 °C; for `N#Cc1cccc(-c2ccn(-c3ccc(C(F)(F)F)cc3)n2)c1` [Compound 62, 3-[1-(4-Trifluoromethyl-phenyl)-1H-pyrazol-3-yl]-benzonitrile]: 70 to 74 °C.
`N#Cc1cccc(-c2ccn(-c3ccc(F)c(F)c3)n2)c1` [Compound 63, 3-[1-(3,4-Difluoro-phenyl)-1H-pyrazol-3-yl]-benzonitrile] registered a melting point of 142 to 145 °C.
The same measure for `COC(=O)c1cccc(-n2ccc(-c3cccc(C#N)c3)n2)c1` [Compound 64, 3-[3-(3-Cyano-phenyl)-pyrazol-1-yl]-benzoic acid methyl ester]: 143 to 145 °C.
To `O=C(O)c1cccc(-c2ccn(-c3ccccc3)n2)c1` [Compound 65, 3-(1-Phenyl-1H-pyrazol-3-yl)-benzoic acid] belongs 202 to 204 °C; to `O=C(O)c1cccc(-c2ccn(-c3ccc(C(F)(F)F)cc3)n2)c1` [Compound 67, 3-[1-(4-Trifluoromethyl-phenyl)-1H-pyrazol-3-yl]-benzoic acid], 225 to 227 °C.
The same measure for `O=C(O)c1cccc(-c2ccn(-c3ccc(F)c(F)c3)n2)c1` [Compound 68, 3-[1-(3,4-Difluoro-phenyl)-1H-pyrazol-3-yl]-benzoic acid]: 240 to 244 °C.
In turn, `O=C(O)c1cccc(-c2ccn(-c3cccc(C(=O)O)c3)n2)c1` [Compound 69, 1,3-Bis(3-carboxyphenyl)-1H-pyrazole] showed a melting point of more than 300 °C.
Regarding `O=C(O)c1cccc(-c2ccn(-c3ccc(O)cc3)n2)c1` [Compound 74, 3-[1-(4-Hydroxy-phenyl)-1H-pyrazol-3-yl]-benzoic acid], the melting point is 228 to 230 °C.
As for `O=C(O)c1cccc(-c2ccn(-c3cccc(O)c3)n2)c1` [Compound 75, 3-[1-(3-Hydroxy-phenyl)-1H-pyrazol-3-yl]-benzoic acid], the melting point is 178 to 190 °C and 178 to 179 °C.
`COc1ccc(-n2ccc(-c3cccc(C(=O)O)c3)n2)cc1` [Compound 76, 3-[1-(4-Methoxy-phenyl)-1H-pyrazol-3-yl]-benzoic acid] displayed a melting point of 160 to 161 °C.
To `COc1cccc(-n2ccc(-c3cccc(C(=O)O)c3)n2)c1` [Compound 77, 3-[1-(3-Methoxy-phenyl)-1H-pyrazol-3-yl]-benzoic acid] belongs 153 to 154 °C; to `N#Cc1cccc(-c2ccn(-c3cccc(C(=O)O)c3)n2)c1` [Compound 78, 3-[3-(3-Cyano-phenyl)-pyrazol-1-yl]-benzoic acid], 164 to 166 °C.
The molecule `O=C(O)c1cccc(-n2ccc(-c3ccccc3)n2)c1` [Compound 79, 3-(3-Phenyl-pyrazol-1-yl)-benzoic acid] displayed a melting point of 180 to 182 °C.
With `O=C(O)c1cccc(-n2ccc(-c3ccc(Cl)cc3)n2)c1` [Compound 80, 3-[3-(4-Chloro-phenyl)-pyrazol-1-yl]-benzoic acid], the melting point fell in the range of 230 to 235 °C.
To `COc1ccc(-c2ccn(-c3cccc(C(=O)O)c3)n2)cc1` [Compound 81, 3-[3-(4-Methoxy-phenyl)-pyrazol-1-yl]-benzoic acid] belongs 210 to 211 °C.
The same measure for `O=C(O)c1cccc(-n2ccc(-c3ccc(N4CCOCC4)cc3)n2)c1` [Compound 82, 3-[3-(4-Morpholin-4-yl-phenyl)-pyrazol-1-yl]-benzoic acid]: 230 to 235 °C; for `O=C(O)c1cccc(-c2cnn(-c3ccc(Cl)cc3)c2)c1` [Compound 83, 3-[1-(4-Chloro-phenyl)-1H-pyrazol-4-yl]-benzoic acid]: 205 to 206 °C; for `O=C(O)c1cccc(-n2cc(-c3ccccc3F)cn2)c1` [Compound 84, 3-[4-(2-Fluoro-phenyl)-pyrazol-1-yl]-benzoic acid]: 225 to 226 °C.
The same measure for `O=C(O)c1ccc(-n2cc(-c3ccccc3F)cn2)cc1` [Compound 85, 4-[4-(2-Fluoro-phenyl)-pyrazol-1-yl]-benzoic acid]: 260 to 261 °C; for `O=C(O)c1cccc(-c2ccn(-c3ccccc3F)n2)c1` [Compound 86, 3-[1-(2-Fluoro-phenyl)-1H-pyrazol-3-yl]-benzoic acid]: 157 to 158 °C.
Regarding `O=C(O)c1cccc(-c2ccn(-c3ccc4c(c3)OCO4)n2)c1` [Compound 87, 3-(1-Benzo[1,3]dioxol-5-yl-1H-pyrazol-3-yl)-benzoic acid], the melting point lay within 210 to 215 °C.
To `O=C(O)c1cccc(-n2cc(-c3cccc(Br)c3)cn2)c1` [Compound 88, 3-[4-(3-Bromo-phenyl)-pyrazol-1-yl]-benzoic acid] belongs 177 to 178 °C; to `O=C(O)c1ccc(-n2cc(-c3cccc(Br)c3)cn2)cc1` [Compound 89, 4-[4-(3-Bromo-phenyl)-pyrazol-1-yl]-benzoic acid], 247 to 248 °C; to `Cc1cccc(-c2cnn(-c3cccc(C(=O)O)c3)c2)c1` [Compound 90, 3-(4-m-Tolyl-pyrazol-1-yl)-benzoic acid], 181 to 182 °C.
In turn, `Cc1cccc(-c2cnn(-c3ccc(C(=O)O)cc3)c2)c1` [Compound 91, 4-(4-m-Tolyl-pyrazol-1-yl)-benzoic acid] registered a melting point of 251 to 252 °C.
Regarding `O=C(O)c1cccc(-n2ccc(-c3ccc(F)cc3)n2)c1` [Compound 92, 3-[3-(4-Fluoro-phenyl)-pyrazol-1-yl]-benzoic acid], the melting point fell in the range of 237 to 240 °C.
The molecule `O=C(O)c1cccc(-n2ccc(-c3cccc(F)c3)n2)c1` [Compound 93, 3-[3-(3-Fluoro-phenyl)-pyrazol-1-yl]-benzoic acid] gave a melting point of 173 to 174 °C.
In turn, `O=C(O)c1cccc(-n2ccc(-c3ccc(C(F)(F)F)cc3)n2)c1` [Compound 94] displayed a melting point of 225 to 227 °C.
Consider `O=C(O)c1cccc(-n2ccc(-c3ccc(OC(F)(F)F)cc3)n2)c1` [Compound 95, 3-[3-(4-Trifluoromethoxy-phenyl)-pyrazol-1-yl]-benzoic acid], for which the melting point lay in the range of 191 to 194 °C.
To `O=C(O)c1cccc(-c2ccn(-c3ccc(F)cc3)n2)c1` [Compound 96, 3-[1-(4-Fluoro-phenyl)-1H-pyrazol-3-yl]-benzoic acid] belongs 245 to 246 °C.
Take `COc1ccc(-n2cc(-c3cccc(C(=O)O)c3)cn2)cc1` [Compound 97]: the melting point is 225 to 227 °C and 223 to 225 °C.
As to `O=C(O)c1cccc(-n2cc(-c3ccccc3)cn2)c1` [Compound 98, 3-(4-Phenyl-pyrazol-1-yl)-benzoic acid], the melting point lay in the range of 225 to 226 °C.
To `O=C(O)c1ccc(-n2cc(-c3ccccc3)cn2)cc1` [Compound 99, 4-(4-Phenyl-pyrazol-1-yl)-benzoic acid] belongs 267 to 269 °C; to `O=C(O)c1cccc(-n2cc(-c3ccc(O)cc3)cn2)c1` [Compound 100, 3-[4-(4-Hydroxy-phenyl)-pyrazol-1-yl]-benzoic acid], 282 to 284 °C; to `O=C(O)c1cccc(-n2cc(-c3ccc([N+](=O)[O-])cc3)cn2)c1` [Compound 101, 3-[4-(4-Nitro-phenyl)-pyrazol-1-yl]-benzoic acid], 274 to 276 °C.
To `O=C(O)c1ccc(-n2cc(-c3ccc([N+](=O)[O-])cc3)cn2)cc1` [Compound 102, 4-[4-(4-Nitro-phenyl)-pyrazol-1-yl]-benzoic acid] belongs 276 to 277 °C.

The record behind these values is US9051342B2 (priority 2004, dated 2015).
